Format in all cases: functional
Assay [1] concerns Plasmodium berghei. The assay is described as follows: Parasitaemia at day 11 after combination dose at 50 mg/kg/day with 15 mg/kg/day […] over 4 days.
For assay [2], the system named is Plasmodium berghei. In words: Parasitemia at day 13 after combination dose at 50 mg/kg/day with 15 mg/kg/day […] over 4 days.
Assay [3] relates to Plasmodium berghei. In words: Parasitaemia at day 15 after combination dose at 50 mg/kg/day with 15 mg/kg/day […] over 4 days.
Assay [4] deals with Plasmodium berghei. In words: Parasitaemia at day 17 after combination dose at 50 mg/kg/day with 15 mg/kg/day […] over 4 days.
In assay [5] the test system is Plasmodium berghei. The assay is described as follows: Parasitemia at day 5 after combination dose at 50 mg/kg/day with 15 mg/kg/day […] over 4 days.
Assay [6] concerns Plasmodium berghei. The assay is described as follows: Parasitaemia at day 7 after combination dose at 50 mg/kg/day with 15 mg/kg/day […] over 4 days.
Assay [7] has as its system Plasmodium berghei. The assay is described as follows: Parasitaemia at day 9 after combination dose at 50 mg/kg/day with 15 mg/kg/day […] over 4 days.
Assay [8] concerns Plasmodium berghei. In words: Parasitaemia at day 11 after 50 mg/kg/day dose over 4 days.
The test system of assay [9] is Plasmodium berghei. In words: Parasitaemia at day 13 after 50 mg/kg/day dose over 4 days.
Assay [10] relates to Plasmodium berghei. The assay is described as follows: Parasitaemia at day 5 after 50 mg/kg/day dose over 4 days.
In assay [11] the test system is Plasmodium berghei. In words: Parasitemia at day 7 after 50 mg/kg/day dose over 4 days.
For assay [12], the system named is Plasmodium berghei. In words: Parasitemia at day 9 after 50 mg/kg/day dose over 4 days.
For assay [13], the system named is Plasmodium berghei. The assay is described as follows: In vivo activity after 11 days against chloroquine-sensitive Plasmodium berghei infected mice (Mus musculus) at 100 mg/kg intraperitoneal dose over 4 days.
Assay [14] relates to Plasmodium berghei. The assay is described as follows: In vivo activity at day 5 against chloroquine-sensitive Plasmodium berghei infected mice (Mus musculus) at 100 mg/kg intraperitoneal dose over 4 days.
For assay [15], the system named is Plasmodium berghei. The assay is described as follows: In vivo activity at day 7 against chloroquine-sensitive Plasmodium berghei infected mice (Mus musculus) at 100 mg/kg intraperitoneal dose over 4 days.
The test system of assay [16] is Plasmodium berghei. In words: In vivo activity at day 9 against chloroquine-sensitive Plasmodium berghei infected mice (Mus musculus) at 100 mg/kg intraperitoneal dose over 4 days.
In assay [17] the test system is Plasmodium berghei. The assay is described as follows: In vivo activity after 13 days against chloroquine-sensitive Plasmodium berghei infected mice (Mus musculus) at 100 mg/kg intraperitoneal dose over 4 days.
Assay [18] deals with Plasmodium berghei. The assay is described as follows: Parasitemia at day 15 after 50 mg/kg/day dose over 4 days.
For assay [19], the system named is Plasmodium berghei. The assay is described as follows: In vivo activity after 15 days against chloroquine-sensitive Plasmodium berghei infected mice (Mus musculus) at 100 mg/kg intraperitoneal dose over 4 days.

Structures are written as SMILES.

For the compound `COc1cccc(/C=C/C(=O)c2ccc(OCCCCCCOc3ccc(C(=O)/C=C/c4cccc(OC)c4)cc3)cc2)c1`, the Parasitaemia was found to be 2% in the assay on Plasmodium berghei [1]; 3.6% with Plasmodium berghei [2]; 6.6% with Plasmodium berghei [3]; 11.5% in the assay with Plasmodium berghei [4]; 0% in the assay on Plasmodium berghei [5]; 0% with Plasmodium berghei [6]. The Parasitaemia in the assay with Plasmodium berghei [7] is listed as 0.14%; in the assay with Plasmodium berghei [8], 9.5%; in the assay on Plasmodium berghei [9], 13%; with Plasmodium berghei [10] it was 1.8%; in the assay on Plasmodium berghei [11], 3.2%; in the assay with Plasmodium berghei [12] it was 7.9%. Also, the Parasitaemia in the assay with Plasmodium berghei [13] is 11%; with Plasmodium berghei [14] it was 2.1%; in the assay on Plasmodium berghei [15], 3.4%; with Plasmodium berghei [16], 6.8%.

For the compound `COc1ccc(/C=C/C(=O)c2ccc(OCCCCCCOc3ccc(C(=O)/C=C/c4ccc(OC)c(OC)c4)cc3)cc2)cc1OC`, the Parasitaemia came out at 3.1% with Plasmodium berghei [17]; 2.3% in the assay with Plasmodium berghei [1]; 6% in the assay on Plasmodium berghei [2]; 7.5% in the assay with Plasmodium berghei [3]; 11% in the assay with Plasmodium berghei [4]; 0% in the assay with Plasmodium berghei [5]. The Parasitaemia with Plasmodium berghei [6] is reported as 0.06%; in the assay with Plasmodium berghei [7] it was 1.8%; in the assay on Plasmodium berghei [8], 4.3%; with Plasmodium berghei [9], 7.3%; in the assay with Plasmodium berghei [10], 0.8%; with Plasmodium berghei [11] it was 1.6%. Moreover, the Parasitaemia in the assay on Plasmodium berghei [12] was found to be 2%; with Plasmodium berghei [13], 2.1%; with Plasmodium berghei [14], 0%; in the assay with Plasmodium berghei [15], 0.16%; with Plasmodium berghei [16] it was 1.3%; in the assay with Plasmodium berghei [18], 15%. Further, the Parasitaemia in the assay on Plasmodium berghei [19] came to 4.25%.

Regarding `CC(=O)c1ccc(OCCCOc2ccc(C(=O)/C=C/c3ccc4c(c3)OCO4)cc2)cc1`, the Parasitaemia with Plasmodium berghei [17] was determined as 3%; in the assay with Plasmodium berghei [1] it was 3%; with Plasmodium berghei [2], 5.1%; in the assay with Plasmodium berghei [3], 7%; in the assay with Plasmodium berghei [4] it was 13%; with Plasmodium berghei [5] it was 0%. The Parasitaemia in the assay on Plasmodium berghei [6] turned out to be 0.04%; with Plasmodium berghei [7] it was 1.96%; in the assay with Plasmodium berghei [8] it was 6.7%; in the assay with Plasmodium berghei [9], 7.8%; in the assay on Plasmodium berghei [10] it was 0.7%; with Plasmodium berghei [11], 1.8%. The Parasitaemia is given as 2.2% in the assay with Plasmodium berghei [12]; 2.75% in the assay with Plasmodium berghei [13]; 0% with Plasmodium berghei [14]; 0.35% in the assay with Plasmodium berghei [15]; 1.7% with Plasmodium berghei [16]; 11.5% with Plasmodium berghei [18]. The same compound returned a Parasitaemia with Plasmodium berghei [19] of 3.85%.

As to `COc1ccc(/C=C/C(=O)c2ccc(OCCCCOc3ccc(C(=O)/C=C/c4ccc(OC)cc4OC)cc3)cc2)c(OC)c1`, the Parasitaemia in the assay with Plasmodium berghei [17] stood at 6.6%; with Plasmodium berghei [1], 4.9%; in the assay on Plasmodium berghei [2], 7.5%; with Plasmodium berghei [3] it was 13%; in the assay with Plasmodium berghei [4] it was 18%; in the assay on Plasmodium berghei [5], 0.2%. For the same compound, the Parasitaemia in the assay on Plasmodium berghei [6] was 0.6%; in the assay on Plasmodium berghei [7] it was 4%; with Plasmodium berghei [8] it was 8%; with Plasmodium berghei [9] it was 7.2%; in the assay with Plasmodium berghei [10] it was 2.6%; in the assay on Plasmodium berghei [11], 3.5%. Besides, the Parasitaemia with Plasmodium berghei [12] amounted to 3.4%; in the assay on Plasmodium berghei [13], 5.2%; in the assay on Plasmodium berghei [14], 1.5%; with Plasmodium berghei [15] it was 2%; with Plasmodium berghei [16], 2.4%; with Plasmodium berghei [18] it was 8.3%. Further, in the assay with Plasmodium berghei [19], the Parasitaemia amounted to 9.5%.

Regarding `CC(=O)c1ccc(OCCCCCCOc2ccc(C(=O)/C=C/c3ccc4c(c3)OCO4)cc2)cc1`, the Parasitaemia in the assay on Plasmodium berghei [1] was 3.2%; in the assay on Plasmodium berghei [2], 5.5%; in the assay on Plasmodium berghei [3], 8%; in the assay with Plasmodium berghei [5] it was 0.02%; with Plasmodium berghei [6], 2%; in the assay with Plasmodium berghei [7], 3.2%. The Parasitaemia with Plasmodium berghei [8] is on record as 6.5%; in the assay on Plasmodium berghei [9], 9%; with Plasmodium berghei [10], 2.2%; with Plasmodium berghei [11], 3.2%; with Plasmodium berghei [12], 4.8%; in the assay with Plasmodium berghei [13] it was 6.3%. In addition, the Parasitaemia stood at 1% in the assay with Plasmodium berghei [14], 2.1% in the assay on Plasmodium berghei [15], 4% in the assay with Plasmodium berghei [16] and 10% in the assay on Plasmodium berghei [18].

Turning to `COc1cccc(/C=C/C(=O)c2ccc(OCCCCOc3ccc(C(=O)/C=C/c4cccc(OC)c4)cc3)cc2)c1`, the Parasitaemia is reported as 19% in the assay with Plasmodium berghei [17]; 5% in the assay with Plasmodium berghei [1]; 7.5% in the assay with Plasmodium berghei [2]; 10% in the assay on Plasmodium berghei [3]; 16% with Plasmodium berghei [4]; 0.8% in the assay on Plasmodium berghei [5]. Moreover, the Parasitaemia in the assay with Plasmodium berghei [6] came out at 3.2%; in the assay on Plasmodium berghei [7], 2.9%; with Plasmodium berghei [8] it was 6.6%; in the assay on Plasmodium berghei [9], 10.8%; with Plasmodium berghei [10], 1.9%; in the assay with Plasmodium berghei [11], 2.1%. Moreover, the Parasitaemia with Plasmodium berghei [12] worked out at 5.7%; in the assay on Plasmodium berghei [13] it was 6.4%; in the assay with Plasmodium berghei [14] it was 1.5%; with Plasmodium berghei [15], 2%; in the assay with Plasmodium berghei [16], 3.9%; in the assay with Plasmodium berghei [18] it was 13.3%.

For `COc1ccc(/C=C/C(=O)c2ccc(OCCCOc3ccc(C(=O)/C=C/c4ccc(OC)c(OC)c4)cc3)cc2)cc1OC`, the Parasitaemia with Plasmodium berghei [17] came to 1.5%; with Plasmodium berghei [1] it was 7.6%; in the assay on Plasmodium berghei [2], 12.2%; with Plasmodium berghei [3] it was 18%; in the assay with Plasmodium berghei [4], 24%; in the assay on Plasmodium berghei [5], 0%. Besides, the Parasitaemia in the assay on Plasmodium berghei [6] is recorded as 1.3%; in the assay with Plasmodium berghei [7], 1.9%; in the assay with Plasmodium berghei [8], 5%; in the assay with Plasmodium berghei [9], 10.4%; in the assay on Plasmodium berghei [10], 0.74%; in the assay on Plasmodium berghei [11], 2.4%. The Parasitaemia in the assay on Plasmodium berghei [12] is on record as 2%; in the assay with Plasmodium berghei [13], 0.9%; in the assay on Plasmodium berghei [14] it was 0.01%; in the assay on Plasmodium berghei [15], 0.05%; in the assay with Plasmodium berghei [16], 0.6%; with Plasmodium berghei [19] it was 3%.

Consider `COc1ccc(/C=C/C(=O)c2ccc(OCCCCOc3ccc(C(=O)/C=C/c4ccc(OC)c(OC)c4)cc3)cc2)cc1OC`, for which the Parasitaemia in the assay with Plasmodium berghei [17] is on record as 1.5%; in the assay on Plasmodium berghei [1], 2.7%; in the assay with Plasmodium berghei [2], 7.5%; with Plasmodium berghei [5] it was 0.002%; in the assay with Plasmodium berghei [6] it was 0.3%; with Plasmodium berghei [7], 1.8%. For the same compound, the Parasitaemia with Plasmodium berghei [8] was determined as 5%; with Plasmodium berghei [9], 6.9%; in the assay with Plasmodium berghei [10], 1.2%; in the assay on Plasmodium berghei [11], 2.5%; in the assay with Plasmodium berghei [12], 2.5%; in the assay with Plasmodium berghei [13] it was 1%. Moreover, the Parasitaemia in the assay with Plasmodium berghei [14] is listed as 0%; in the assay with Plasmodium berghei [15] it was 0%; in the assay on Plasmodium berghei [16], 0.7%; in the assay with Plasmodium berghei [18], 13.2%; in the assay with Plasmodium berghei [19] it was 2%.

With `COc1ccc(/C=C/C(=O)c2ccc(OCOc3ccc(C(=O)/C=C/c4ccc(OC)cc4OC)cc3)cc2)c(OC)c1`, the figures for the Parasitaemia with Plasmodium berghei [14], in the assay on Plasmodium berghei [15] and with Plasmodium berghei [16] were 3.4%, 5% and 2%, respectively.

The record behind these values is ChEMBL document CHEMBL1132737, “Oxygenated chalcones and bischalcones as potential antimalarial agents” (2000).
